{"source": "paper PMC2648976", "about": "(Biochemistry, 2008)", "key": {"[1]": {"target": "T1, WNV NS2B-NS3 protease (West Nile virus, UniProt Q9Q6P4)", "T1 sequence (Q9Q6P4 1428-1467 limits assumed, looked up)": "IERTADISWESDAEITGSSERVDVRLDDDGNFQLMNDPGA", "T1 sequence (Q9Q6P4 1506-1683 limits assumed, looked up)": "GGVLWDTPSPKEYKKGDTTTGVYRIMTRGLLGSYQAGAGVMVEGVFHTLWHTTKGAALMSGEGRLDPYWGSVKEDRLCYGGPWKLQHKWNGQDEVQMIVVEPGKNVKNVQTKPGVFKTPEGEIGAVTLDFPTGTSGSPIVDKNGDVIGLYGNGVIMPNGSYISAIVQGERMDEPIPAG", "test": "Inhibition of NS2B-NS3pro by product-analog peptides", "assay_type": "biochemical", "details": "for Kd (substrate) compared with Ki1 (inhibitor) / difference between Kd2 (substrate) and Ki2 (inhibitor): mixed inhibitor-substrate inhibition model"}, "[2]": {"target": "T1, WNV NS2B-NS3 protease", "test": "NS2B-NS3pro kinetic assay, cleavage of fluorophore-linked", "assay_type": "biochemical", "details": "for substrate inhibition (reaction mechanism): high substrate concentrations"}, "[3]": {"details": "200 mM Tris pH 9.0, 20% glycerol"}}, "note": "“Also recorded” adds a separate entry of the source. Where a SMILES comes first, the peptide text is derived from it. The star is where a group is joined. AMC = Cc1cc(=O)oc2cc(N*)ccc12", "data": [{"compound": "CC(=O)NCC(=O)N[C@@H](CCCNC(=N)N)C(=O)N[C@@H](CCCNC(=N)N)C(N)=O", "note": "[Ac-GRR-NH2]", "values": [{"measurement": "Kd (substrate) compared with Ki1 (inhibitor)", "setting": "[1]", "value": "similar"}, {"measurement": "difference between Kd2 (substrate) and Ki2 (inhibitor)", "setting": "[1]", "value": "~ 2 -fold"}, {"measurement": "Ki3 (interaction with substrate-inhibited enzyme-substrate complex)", "setting": "[1]; model with and without this interaction similar", "value": "large Ki3 which did not play a substantial role in the overall inhibition"}]}, {"compound": "Ac-DFASGKR", "values": [{"measurement": "Kd (substrate) compared with Ki1 (inhibitor)", "setting": "[1]", "value": "very similar"}, {"measurement": "difference between Kd2 (substrate) and Ki2 (inhibitor)", "setting": "[1]", "value": "~ 2 -fold"}, {"measurement": "mechanism of inhibition", "setting": "[1]; model discrimination analysis with Dynafit", "value": "mixed inhibitor-substrate inhibition model; also recorded: mixed non-competitive mechanism (with both competitive and uncompetitive interactions)"}]}, {"compound": "CC(=O)N[C@@H](CC(=O)O)C(=O)N[C@@H](Cc1ccccc1)C(=O)N[C@@H](C)C(=O)N[C@@H](CO)C(=O)NCC(=O)N[C@@H](CCCCN)C(=O)N[C@@H](CCCNC(=N)N)C(=O)Nc1ccc2c(C)cc(=O)oc2c1", "note": "[Ac-DFASGKR-AMC, Ac-Asp-Phe-Ala-Ser-Gly-Lys-Arg-AMC] (Ac-DFASGKR-{AMC})", "values": [{"measurement": "substrate inhibition (reaction mechanism)", "setting": "[2]; [3]", "value": "substrate inhibition was also observed with the longer substrate (Figure 2b), though it was observed at higher substrate concentrations compared to the tripeptide substrates; also recorded: substrate inhibition model"}, {"measurement": "substrate inhibition (reaction mechanism)", "setting": "[2]; 200 mM Tris pH 9.0, 20% glycerol, listed as Ac-Asp-Phe-Ala-Ser-Gly-Lys-Arg-AMC", "value": "demonstrated substrate inhibition"}]}, {"compound": "Cc1cc(=O)oc2cc(NC(=O)[C@H](CCCNC(=N)N)NC(=O)[C@H](CCCNC(=N)N)NC(=O)CNC(=O)OC(C)(C)C)ccc12", "note": "[Boc-GRR-AMC, Boc-Gly-Arg-Arg-AMC]", "values": [{"measurement": "NS2B-NS3pro activity against substrate", "setting": "[2]; [3]", "value": "clearly active"}, {"measurement": "relative binding (Kd)", "setting": "[2]; Boc-GRR-AMC relative to Ac-DFASGKR-AMC", "value": "tighter binding (lower Kd)"}, {"measurement": "relative extent of substrate inhibition", "setting": "[2]; at high substrate concentrations", "value": "more pronounced with Boc-GRR-AMC than with Boc-GKR-AMC (data not shown) or Ac-DFASGKR-AMC"}, {"measurement": "substrate inhibition (reaction mechanism)", "setting": "[2]; [3]", "value": "initial reaction velocities reached a peak and then decreased with increasing substrate concentration; also recorded: substrate inhibition model"}, {"measurement": "substrate inhibition (reaction mechanism)", "setting": "[2]; 200 mM Tris pH 9.0, 20% glycerol, listed as Boc-Gly-Arg-Arg-AMC", "value": "demonstrated substrate inhibition"}]}]}
